# According to ChEMBL document CHEMBL1201862, “PubChem BioAssay data set” (2004):
#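 How tested: cells in 96-well plates exposed to compound for 48 hours at five concentrations. Abbreviation: GI50, concentration required for 50% inhibition of growth.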 Active and inactive are the calls of the source. No stated cut-off is given here; in the data, active = GI50 up to about 1.1 µM and inactive = higher.
# Experiments:
# Experiment in all cases: NCI-60 cell line screen, 48 h
# [1] = tested on: SR
# [2] = tested on: MDA-N
# [3] = tested on: SF-295
# [4] = tested on: SNB-19
# [5] = tested on: Hs-578T
# [6] = tested on: EKVX
# [7] = tested on: U-251
# [8] = tested on: SK-OV-3
# [9] = tested on: OVCAR-3
# [10] = tested on: UO-31
# [11] = tested on: SF-268
# [12] = tested on: ACHN
# [13] = tested on: KM12
# [14] = tested on: K562
# [15] = tested on: LOX IMVI
# [16] = tested on: HOP-92
# [17] = tested on: NCI/ADR-RES
# [18] = tested on: PC-3
# [19] = tested on: UACC-62
# [20] = tested on: SF-539
Structure (SMILES),GI50 [1],GI50 [2],GI50 [3],GI50 [4],GI50 [5],GI50 [6],GI50 [7],GI50 [8],GI50 [9],GI50 [10],GI50 [11],GI50 [12],GI50 [13],GI50 [14],GI50 [15],GI50 [16],GI50 [17],GI50 [18],GI50 [19],GI50 [20]
COc1ccc2c(c1)CCc1c-2n(CCN(C)C)c2ccc(OC)cc12,3.95 µM (inactive),5.46 µM (inactive),18.3 µM (inactive),11.6 µM (inactive),21.4 µM (inactive),31.2 µM (inactive),12.1 µM (inactive),25.9 µM (inactive),31 µM (inactive),14 µM (inactive),22.6 µM (inactive),14.2 µM (inactive),7.53 µM (inactive),3.77 µM (inactive),7.89 µM (inactive),94.2 µM (inactive),18.5 µM (inactive),12.1 µM (inactive),9.42 µM (inactive),–
COc1ccc(NC(=O)C(=O)C(CC2C(=O)NC(=S)NC2=O)C(=O)c2ccc3ccccc3c2)c([N+](=O)[O-])c1 (stereo not given),–,> 100 µM (inactive),> 100 µM (inactive),> 100 µM (inactive),> 100 µM (inactive),> 100 µM (inactive),> 100 µM (inactive),> 100 µM (inactive),> 100 µM (inactive),> 100 µM (inactive),> 100 µM (inactive),> 100 µM (inactive),> 100 µM (inactive),> 100 µM (inactive),> 100 µM (inactive),> 100 µM (inactive),> 100 µM (inactive),> 100 µM (inactive),> 100 µM (inactive),> 100 µM (inactive)
O=C1CCc2ccccc2O1 [DIHYDROCOUMARIN],> 100 µM (inactive),53.1 µM (inactive),> 100 µM (inactive),> 100 µM (inactive),> 100 µM (inactive),> 100 µM (inactive),> 100 µM (inactive),> 100 µM (inactive),> 100 µM (inactive),> 100 µM (inactive),> 100 µM (inactive),> 100 µM (inactive),> 100 µM (inactive),> 100 µM (inactive),> 100 µM (inactive),> 100 µM (inactive),> 100 µM (inactive),> 100 µM (inactive),> 100 µM (inactive),–
C/C(=N/Nc1nc(C)cc(O)n1)C(=O)O,> 100 µM (inactive),> 100 µM (inactive),> 100 µM (inactive),> 100 µM (inactive),> 100 µM (inactive),> 100 µM (inactive),> 100 µM (inactive),> 100 µM (inactive),> 100 µM (inactive),> 100 µM (inactive),> 100 µM (inactive),> 100 µM (inactive),> 100 µM (inactive),> 100 µM (inactive),> 100 µM (inactive),–,> 100 µM (inactive),> 100 µM (inactive),> 100 µM (inactive),–
CCCC[S+]([O-])CCC(N)C(=O)O (stereo not given),> 100 µM (inactive),> 100 µM (inactive),> 100 µM (inactive),> 100 µM (inactive),> 100 µM (inactive),> 100 µM (inactive),> 100 µM (inactive),> 100 µM (inactive),> 100 µM (inactive),> 100 µM (inactive),> 100 µM (inactive),> 100 µM (inactive),> 100 µM (inactive),> 100 µM (inactive),–,–,> 100 µM (inactive),> 100 µM (inactive),> 100 µM (inactive),> 100 µM (inactive)
C=CC/N=C(\S)Nc1sc2c(c1C(=O)OCC)CC(C)CC2 (stereo not given),18.9 µM (inactive),30.5 µM (inactive),21.1 µM (inactive),26.3 µM (inactive),36.6 µM (inactive),28.1 µM (inactive),32.6 µM (inactive),25.4 µM (inactive),20.3 µM (inactive),23.7 µM (inactive),35 µM (inactive),22.9 µM (inactive),34.8 µM (inactive),33 µM (inactive),32.9 µM (inactive),33 µM (inactive),31.1 µM (inactive),21.1 µM (inactive),20.6 µM (inactive),–
C/C(=N/NC(=S)N(C)C)c1ccccc1O,–,11.9 µM (inactive),11.8 µM (inactive),> 59.8 µM (inactive),> 72.4 µM (inactive),29.1 µM (inactive),6.35 µM (inactive),> 44.5 µM (inactive),2.97 µM (inactive),8.67 µM (inactive),6.07 µM (inactive),6.31 µM (inactive),8.85 µM (inactive),19.1 µM (inactive),4.86 µM (inactive),> 75.2 µM (inactive),3.53 µM (inactive),10.1 µM (inactive),6.46 µM (inactive),8.91 µM (inactive)
O=C1Nc2ccccc2/C1=N/Nc1ccc([N+](=O)[O-])cc1,1.46 µM (inactive),68.5 µM (inactive),16.9 µM (inactive),32.8 µM (inactive),9.06 µM (inactive),8.93 µM (inactive),30.3 µM (inactive),24.2 µM (inactive),13.6 µM (inactive),13.3 µM (inactive),10.4 µM (inactive),13.5 µM (inactive),20.2 µM (inactive),17 µM (inactive),21.5 µM (inactive),–,15.4 µM (inactive),27.4 µM (inactive),28.8 µM (inactive),3.83 µM (inactive)
Cc1ccc(S(=O)(=O)NNC(=O)Nc2cccc(C(F)(F)F)c2)cc1,> 100 µM (inactive),> 100 µM (inactive),> 100 µM (inactive),> 100 µM (inactive),> 100 µM (inactive),> 100 µM (inactive),96.8 µM (inactive),> 100 µM (inactive),–,99.1 µM (inactive),> 100 µM (inactive),58.5 µM (inactive),57.3 µM (inactive),67.6 µM (inactive),–,> 100 µM (inactive),61.8 µM (inactive),36.4 µM (inactive),> 100 µM (inactive),> 100 µM (inactive)
O=C1C(OC(=O)c2ccccc2)=C(c2ccc(O)cc2)C(=O)C(OC(=O)c2ccccc2)=C1c1ccc(O)cc1,–,> 100 µM (inactive),61 µM (inactive),46 µM (inactive),> 100 µM (inactive),> 100 µM (inactive),40.5 µM (inactive),56.2 µM (inactive),38.1 µM (inactive),> 100 µM (inactive),> 100 µM (inactive),> 100 µM (inactive),60.5 µM (inactive),> 100 µM (inactive),76.4 µM (inactive),> 100 µM (inactive),> 100 µM (inactive),> 100 µM (inactive),44.7 µM (inactive),> 100 µM (inactive)
CC1=CC(=O)c2ccccc2C1=O [MENADIONE],–,0.91 µM (active),16.5 µM (inactive),17.9 µM (inactive),10.7 µM (inactive),17.2 µM (inactive),13.4 µM (inactive),13 µM (inactive),11.1 µM (inactive),2.65 µM (inactive),7.52 µM (inactive),3.36 µM (inactive),10.7 µM (inactive),2.38 µM (inactive),2.04 µM (inactive),1.55 µM (inactive),11.9 µM (inactive),3.61 µM (inactive),4.67 µM (inactive),3.61 µM (inactive)
CN1CC=C(c2c(N)nc(N)[nH]c2=O)CC1,> 100 µM (inactive),> 100 µM (inactive),> 100 µM (inactive),> 100 µM (inactive),> 100 µM (inactive),> 100 µM (inactive),> 100 µM (inactive),> 100 µM (inactive),> 100 µM (inactive),> 100 µM (inactive),> 100 µM (inactive),> 100 µM (inactive),> 100 µM (inactive),> 100 µM (inactive),–,> 100 µM (inactive),> 100 µM (inactive),> 100 µM (inactive),> 100 µM (inactive),> 100 µM (inactive)
CCCCOC(=O)C(=O)C(CC(C(=O)Cc1ccccc1)c1ccccc1)C(=O)C=C(C)C (stereo not given),–,> 100 µM (inactive),> 100 µM (inactive),> 100 µM (inactive),> 100 µM (inactive),> 100 µM (inactive),> 100 µM (inactive),> 100 µM (inactive),> 100 µM (inactive),> 100 µM (inactive),> 100 µM (inactive),> 100 µM (inactive),> 100 µM (inactive),–,> 100 µM (inactive),> 100 µM (inactive),> 100 µM (inactive),> 100 µM (inactive),> 100 µM (inactive),> 100 µM (inactive)
Nc1ccc(-c2nc3ccccc3s2)cc1C(F)(F)F,–,13.6 µM (inactive),17.4 µM (inactive),17.4 µM (inactive),20 µM (inactive),11 µM (inactive),15 µM (inactive),16.6 µM (inactive),16.4 µM (inactive),14.7 µM (inactive),16 µM (inactive),15.2 µM (inactive),16.1 µM (inactive),20 µM (inactive),16.4 µM (inactive),16.3 µM (inactive),17.7 µM (inactive),15.7 µM (inactive),16.9 µM (inactive),18.7 µM (inactive)
CC1(C)CC2(C)CC1CC2O (stereo not given),> 100 µM (inactive),> 100 µM (inactive),> 100 µM (inactive),> 100 µM (inactive),> 100 µM (inactive),> 100 µM (inactive),> 100 µM (inactive),> 100 µM (inactive),> 100 µM (inactive),> 100 µM (inactive),> 100 µM (inactive),–,> 100 µM (inactive),> 100 µM (inactive),> 100 µM (inactive),–,> 100 µM (inactive),> 100 µM (inactive),> 100 µM (inactive),> 100 µM (inactive)
